Data published in patent US11566007B2, “Ras inhibitors” (Revolution Medicines, Inc., priority 2019, dated 2023).
Several values for one entry are separate records, joined by “and”; a condition that tells them apart may be missing. Equal values may be shown once. Read-outs that look alike come from different tables or passages of the source.

Assays:
K-Ras G13C = K-Ras G13C (Homo sapiens (Human), UniProt P01116+P62937, G13C); experiment: Ras-Raf (BRAF RBD) disruption / FRET / MOA assay, KRAS G13C; format: biochemical; conditions: KRAS G13C; Ras-Raf disruption/FRET/MOA assay; read-out: IC50* KRAS G13C FRET data
Procedure, shortened: (§1)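 Compound-driven ternary complex of nucleotide-loaded Ras with cyclophilin A, disrupting BRAF RBD binding. 10-point 3-fold dilution from 30 μM final, 3 h at 25° C, then anti-His Eu-W1024 (10 nM) and anti-GST allophycocyanin (50 nM) for 1.5 h. IC50 from TR-FRET ratio decrease versus DMSO.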

KRAS G12D = KRAS G12D (Homo sapiens (Human), UniProt P01116+P62937, G12D); experiment: Ras-Raf (BRAF RBD) disruption / FRET / MOA assay, KRAS G12D; format: biochemical; conditions: Ras-Raf disruption/FRET/MOA assay; class symbols; read-out: KRAS G12D FRET data IC50
Procedure, shortened: as §1

NCI-H358 (K-Ras G12C) = experiment: CellTiter-Glo cell viability assay, NCI-H358; format: cell-based, human; conditions: Homo sapiens, NCI-H358, 120 h, NCI-H358, 5-day treatment; class symbols; read-out: Additional H358 Cell Viability assay data (K-Ras G12C, IC50)
Procedure, shortened: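 Viability of K-Ras mutant lines is measured by ATP luminescence after five days of compound treatment. Percent of DMSO control is calculated and dose-response data are fitted with a four-parameter logistic equation.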

KRAS G13D = KRAS G13D (Homo sapiens (Human), UniProt P01116+P62937, G13D); experiment: Ras-Raf (BRAF RBD) disruption / FRET / MOA assay, KRAS G13D; format: biochemical; conditions: read-out: IC50* KRAS G13D FRET data
Description: The purpose of this biochemical assay is to measure the ability of test compounds to facilitate ternary complex formation between a nucleotide-loaded Ras isoform and cyclophilin A; the resulting ternary complex disrupts binding to a BRAF^RBD construct, inhibiting Ras signaling through a RAF effector.
(§2) Compound is present in plate wells as a 10-point 3-fold dilution series starting at a final concentration of 30 μM. After incubation at 25° C. for 3 hours, a mixture of Anti-His Eu-W1024 and anti-GST allophycocyanin is then added to assay sample wells at final concentrations of 10 nM and 50 nM, respectively, and the reaction incubated for an additional 1.5 hours. […] Compounds that facilitate disruption of a Ras:RAF complex are identified as those eliciting a decrease in the TR-FRET ratio relative to DMSO control wells.
This protocol may also be executed substituting other Ras proteins or nucleotides.
The purpose of this biochemical assay was to measure the ability of test compounds to facilitate ternary complex formation between a nucleotide-loaded K-Ras isoform and Cyclophilin A; the resulting ternary complex disrupts binding to a BRAF^RBD construct, inhibiting K-Ras signaling through a RAF effector. Data is reported as IC50 values.
as §2, with “Compound was” for “Compound is”, “allophycocyanin was” for “allophycocyanin is”, “a K-Ras:RAF” for “a Ras:RAF”, “complex were” for “complex are”

NRAS G12C = NRAS G12C (Homo sapiens (Human), UniProt P01111+P62937, G12C); experiment: Ras-Raf (BRAF RBD) disruption / FRET / MOA assay, NRAS G12C; format: biochemical; conditions: read-out: IC50* NRAS G12C FRET data
Procedure, shortened: as §1

KRAS G12V = KRAS G12V (Homo sapiens (Human), UniProt P01116+P62937, G12V); experiment: Ras-Raf (BRAF RBD) disruption / FRET / MOA assay, KRAS G12V; format: biochemical; conditions: read-out: IC50* KRAS G12V FRET data
Procedure, shortened: as §1

KRAS WT = KRAS WT (Homo sapiens (Human), UniProt P01116+P62937); experiment: Ras-Raf (BRAF RBD) disruption / FRET / MOA assay, KRAS WT; format: biochemical; conditions: read-out: IC50* KRAS WT FRET data
Procedure, shortened: as §1

K-Ras G12C = K-Ras G12C (Homo sapiens (Human), UniProt P01116+P62937, G12C); experiment: Ras-Raf (BRAF RBD) disruption / FRET / MOA assay, KRAS G12C; format: biochemical; conditions: KRAS G12C; Ras-Raf disruption/FRET/MOA assay; read-out: IC50* KRAS G12C FRET data
Procedure, shortened: as §1

KRAS G12S = KRAS G12S (Homo sapiens (Human), UniProt P01116+P62937, G12S); experiment: Ras-Raf (BRAF RBD) disruption / FRET / MOA assay, KRAS G12S; format: biochemical; conditions: Ras-Raf disruption/FRET/MOA assay; class symbols; read-out: KRAS G12S FRET data IC50
Procedure, shortened: as §1

[1] = test system: NCI-H358 cells (K-Ras G12C); experiment: Potency assay: pERK in NCI-H358 cells; format: cell-based, human; conditions: H358 KRAS G12C, read-out: pERK EC50
Procedure, shortened: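 4 h cpd, 37 °C; 10-pt 3-fold series, 10 mM DMSO top stock, duplicates. Readout pERK: AlphaLISA SureFire Ultra or In-Cell Western (IR-800CW secondary, DRAQ5 DNA stain). IC50, 4-PL fit vs log conc.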

Chain of NRAS G12C (P01111 whole entry G12C): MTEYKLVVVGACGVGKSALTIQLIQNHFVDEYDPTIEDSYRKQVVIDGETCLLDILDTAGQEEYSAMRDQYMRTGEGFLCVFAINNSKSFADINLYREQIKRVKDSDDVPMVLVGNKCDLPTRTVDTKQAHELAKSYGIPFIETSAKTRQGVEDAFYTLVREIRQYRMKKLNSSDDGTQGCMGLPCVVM
Chain of NRAS G12C (P62937 whole entry): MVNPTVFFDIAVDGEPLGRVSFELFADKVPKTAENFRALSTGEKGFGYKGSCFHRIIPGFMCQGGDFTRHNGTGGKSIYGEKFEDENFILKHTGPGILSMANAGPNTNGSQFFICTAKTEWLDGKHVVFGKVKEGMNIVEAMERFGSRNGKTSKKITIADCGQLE
Chain of KRAS G13D (P01116-2 other isoform, or with tags, fused parts or gaps G13D): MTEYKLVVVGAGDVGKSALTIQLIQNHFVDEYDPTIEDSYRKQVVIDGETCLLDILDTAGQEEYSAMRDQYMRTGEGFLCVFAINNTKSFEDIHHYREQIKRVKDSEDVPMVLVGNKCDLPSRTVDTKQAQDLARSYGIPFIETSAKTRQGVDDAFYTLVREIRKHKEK
Chain of KRAS G13D (P62937 whole entry, canonical isoform): as the sequence (P62937 whole entry) above
Chain of K-Ras G12C (P01116-2 other isoform, or with tags, fused parts or gaps G12C): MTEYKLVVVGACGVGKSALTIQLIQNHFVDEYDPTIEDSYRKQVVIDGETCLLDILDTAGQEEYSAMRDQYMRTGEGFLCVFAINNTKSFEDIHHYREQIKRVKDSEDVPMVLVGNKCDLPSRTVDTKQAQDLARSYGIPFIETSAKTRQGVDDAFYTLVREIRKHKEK
Chain of K-Ras G12C (P62937 whole entry): as the sequence (P62937 whole entry) above
Chain of KRAS G12V (P01116-2 other isoform, or with tags, fused parts or gaps G12V): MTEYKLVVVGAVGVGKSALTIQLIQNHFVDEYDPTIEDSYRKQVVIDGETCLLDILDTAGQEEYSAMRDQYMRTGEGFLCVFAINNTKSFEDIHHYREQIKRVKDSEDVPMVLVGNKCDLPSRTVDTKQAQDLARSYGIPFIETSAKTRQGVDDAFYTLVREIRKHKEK
Chain of KRAS G12V (P62937 whole entry): as the sequence (P62937 whole entry) above
Chain of KRAS WT (P01116-2 other isoform, or with tags, fused parts or gaps): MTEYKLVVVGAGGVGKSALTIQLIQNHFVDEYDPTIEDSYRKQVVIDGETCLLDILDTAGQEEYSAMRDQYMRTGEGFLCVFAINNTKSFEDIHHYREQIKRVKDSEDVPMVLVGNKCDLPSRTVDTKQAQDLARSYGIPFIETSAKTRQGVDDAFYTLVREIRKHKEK
Chain of KRAS WT (P62937 whole entry): as the sequence (P62937 whole entry) above
Chain of KRAS G12S (P01116-2 other isoform, or with tags, fused parts or gaps G12S): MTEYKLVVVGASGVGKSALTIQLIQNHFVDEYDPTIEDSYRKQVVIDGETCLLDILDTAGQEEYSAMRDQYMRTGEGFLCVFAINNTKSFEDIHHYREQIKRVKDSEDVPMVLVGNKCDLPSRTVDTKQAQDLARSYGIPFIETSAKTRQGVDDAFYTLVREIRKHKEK
Chain of KRAS G12S (P62937 whole entry): as the sequence (P62937 whole entry) above
Chain of K-Ras G13C (P01116-2 other isoform, or with tags, fused parts or gaps G13C): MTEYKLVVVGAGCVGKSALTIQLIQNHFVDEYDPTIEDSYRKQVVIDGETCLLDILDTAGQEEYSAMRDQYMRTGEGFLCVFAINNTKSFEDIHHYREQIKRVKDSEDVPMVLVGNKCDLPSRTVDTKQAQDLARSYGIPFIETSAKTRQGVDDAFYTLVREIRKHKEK
Chain of K-Ras G13C (P62937 whole entry): as the sequence (P62937 whole entry) above
Chain of KRAS G12D (P01116-2 other isoform, or with tags, fused parts or gaps G12D): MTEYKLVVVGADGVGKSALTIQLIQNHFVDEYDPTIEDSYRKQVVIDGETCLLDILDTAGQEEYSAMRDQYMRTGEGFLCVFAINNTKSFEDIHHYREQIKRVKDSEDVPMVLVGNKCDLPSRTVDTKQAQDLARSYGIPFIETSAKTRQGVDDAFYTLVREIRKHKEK
Chain of KRAS G12D (P62937 whole entry): as the sequence (P62937 whole entry) above

`C=CC(=O)N1CC[C@H](C(=O)N(C)[C@H](C(=O)N[C@H]2Cc3cccc(c3)-c3ccc4c(c3)c(c(-c3ccccc3[C@H](C)OC)n4CC)CC(C)(C)COC(=O)[C@@H]3CCCN(N3)C2=O)C(C)C)C1` (atropisomer, axis not shown) [Example A114] showed an IC50 (K-Ras G13C) of over 10 µM, an IC50 (KRAS G12D) of over 10 µM and an IC50 (NCI-H358 (K-Ras G12C)) of 0.1 to 1 µM. It also gave an IC50 (KRAS G13D) of over 10 µM, an IC50 (NRAS G12C) of over 10 µM and an IC50 (KRAS G12V) of over 10 µM. The IC50 (KRAS WT) was over 10 µM, the IC50 (K-Ras G12C) was over 10 µM and the IC50 (KRAS G12S) was over 10 µM.
`C=CC(=O)N1CC[C@@H](C(=O)N(C)[C@H](C(=O)N[C@H]2Cc3cccc(c3)-c3ccc4c(c3)c(c(-c3cccnc3[C@H](C)OC)n4CC)CC(C)(C)COC(=O)[C@@H]3CCCN(N3)C2=O)C(C)C)C1` (atropisomer, axis not shown) [Example A488] showed an IC50 (K-Ras G13C) of 0.1 to 1 µM, an IC50 (KRAS G12D) of 1 to 10 µM and an EC50 ([1]; Homo sapiens, NCI-H358) of under 5 µM. The IC50 (KRAS G13D) was 1 to 10 µM, the IC50 (NRAS G12C) was 0.1 to 1 µM and the IC50 (KRAS G12V) was 1 to 10 µM. For the same compound, the IC50 (KRAS WT) was 1 to 10 µM, the IC50 (K-Ras G12C) was 0.1 to 1 µM and the IC50 (KRAS G12S) was 1 to 10 µM.
Compound `C=CC(=O)N1CC[C@H](C(=O)N(C)[C@H](C(=O)N[C@H]2Cc3cccc(c3)-c3ccc4c(c3)c(c(-c3cc(C5CCN(C)CC5)cnc3[C@H](C)OC)n4CC)CC(C)(C)COC(=O)[C@@H]3CCCN(N3)C2=O)C(C)C)C1` (atropisomer, axis not shown) [Example A515] has an IC50 (K-Ras G13C) of 0.1 to 1 µM, an IC50 (KRAS G12D) of 1 to 10 µM and an EC50 ([1]; Homo sapiens, NCI-H358) of under 5 µM. It also gave an IC50 (KRAS G13D) of 1 to 10 µM, an IC50 (NRAS G12C) of 0.01 to 0.1 µM and an IC50 (KRAS G12V) of 1 to 10 µM. It also gave an IC50 (KRAS WT) of 1 to 10 µM, an IC50 (K-Ras G12C) of 0.01 to 0.1 µM and an IC50 (KRAS G12S) of 0.1 to 1 µM.
`C=CC(=O)N1CC[C@H](C(=O)N(C)[C@H](C(=O)N[C@H]2Cc3nc(cs3)-c3ccc4c(c3)c(c(-c3cc(C5=CCN(C)CC5)cnc3[C@H](C)OC)n4CC)CC(C)(C)COC(=O)[C@@H]3CCCN(N3)C2=O)C(C)C)C1` (atropisomer, axis not shown) [Example A520] gave an IC50 (K-Ras G13C) of 1 to 10 µM, an IC50 (KRAS G12D) of 1 to 10 µM and an EC50 [1] of under 5 µM. The IC50 (KRAS G13D) was 1 to 10 µM, the IC50 (NRAS G12C) was 0.1 to 1 µM and the IC50 (KRAS G12V) was 1 to 10 µM. It also gave an IC50 (KRAS WT) of 1 to 10 µM, an IC50 (K-Ras G12C) of 0.1 to 1 µM and an IC50 (KRAS G12S) of 1 to 10 µM.
`C=CC(=O)Nc1cnc(C(=O)N(C)[C@H](C(=O)N[C@H]2Cc3cccc(c3)-c3ccc4c(c3)c(c(-c3cccnc3[C@H](C)OC)n4CC)CC(C)(C)COC(=O)[C@@H]3CCCN(N3)C2=O)C(C)C)n1C` (atropisomer, axis not shown) [Example A525] was tested, and the IC50 (K-Ras G13C) was 0.01 to 0.1 µM, the IC50 (KRAS G12D) was 1 to 10 µM and the EC50 [1] was under 5 µM. For the same compound, the IC50 (KRAS G13D) was 1 to 10 µM, the IC50 (NRAS G12C) was 0.01 to 0.1 µM and the IC50 (KRAS G12V) was 1 to 10 µM. The IC50 (KRAS WT) was 1 to 10 µM, the IC50 (K-Ras G12C) was 0.01 to 0.1 µM and the IC50 (KRAS G12S) was 1 to 10 µM.
With `CCn1c(-c2cnccc2COC)c2c3cc(ccc31)-c1ccnc(c1)C[C@H](NC(=O)[C@H](C(C)C)N(C)C(=O)[C@H]1CCN(C(=O)C#CCN(C)C)C1)C(=O)N1CCC[C@H](N1)C(=O)OCC(C)(C)C2` [Example A130] the IC50 (K-Ras G13C) was 0.1 to 1 µM, the IC50 (KRAS G12D) was 1 to 10 µM and the EC50 ([1]; Homo sapiens, NCI-H358) was under 5 µM. For the same compound, the IC50 (KRAS G13D) was 1 to 10 µM, the IC50 (NRAS G12C) was under 0.01 µM and the IC50 (KRAS G12V) was over 10 µM. For the same compound, the IC50 (KRAS WT) was over 10 µM, the IC50 (K-Ras G12C) was under 0.01 µM and the IC50 (KRAS G12S) was over 10 µM.
For `CCn1c(-c2cncnc2)c2c3cc(ccc31)-c1cccc(c1)C[C@H](NC(=O)[C@H](C(C)C)N(C)C(=O)[C@H]1CCN(C(=O)C#CCN(C)C)C1)C(=O)N1CCC[C@H](N1)C(=O)OCC(C)(C)C2` [Example A144], the IC50 (K-Ras G13C) was 1 to 10 µM, the IC50 (KRAS G12D) was 1 to 10 µM and the EC50 ([1]; Homo sapiens, NCI-H358) was under 5 µM. For the same compound, the IC50 (KRAS G13D) was 1 to 10 µM, the IC50 (NRAS G12C) was 0.01 to 0.1 µM and 0.1 to 1 µM and the IC50 (KRAS G12V) was over 10 µM. The IC50 (KRAS WT) was over 10 µM, the IC50 (K-Ras G12C) was 0.01 to 0.1 µM and 0.1 to 1 µM and the IC50 (KRAS G12S) was over 10 µM.
